Measured values as given in patent US20260138976A1 (Hoffmann-La Roche Inc., priority 2022, published 2026).
pEC50, pIC50: −log10 of the molar value.

Key:
primary human T-cells = test: Proliferation assay (5 days, CellTiter-Glo, CD3-stimulated T-cells); assay type: cell-based; settings: for Emax proliferation (% activation): CD3 condition, normalised to DMSO (neutral) and 20 μM reference compound A1 = 100%; for pEC50: Homo sapiens, T-cell, 120 h, CD3-stimulated primary human T-cells, 5 days, CellTiter-Glo, fitted sigmoidal curve, read-out: Tcell Proliferation CD3 EC50
Experimental: As readouts for T-cell activation, 1L2 secretion after 24 hours and proliferation after 5 days was measured. Increases in IL2 secretion and proliferation upon compound treatment were assessed as the % of the maximum of reference compound A1. WO 2016/139181 discloses reference compound A1 as example 70. As a counter screen and to make sure that no unwanted TCR-independent activation was triggered, PBS conditions were run for all compounds.
Expanded primary human T-cells are thawed and cultured in RPMI 1640 (Gibco, #61870-010)+5% human serum (HS, Sigma, #H3667)+1 mM Sodium Pyruvate (Gibco, #11360-039)+50 μM 2-mercaptoethanol (Gibco, #31350-010) and 1× Pen-Strep (Life Technologies, #15140122) medium at density of 2 Mio/ml for 3 hours in 5% CO2, 37° C. and 95% humidity. For coating of plates, PBS++ only or PBS++ with CD3 antibody (concentration depending on donor and determined by CD3 titrations) is added 100 μl/well to Poly-D Lysine coated 96-well plates. Plates are sealed and incubated at room temperature for 3 hours on a table-top rocking platform. After incubation, plates are washed once with PBS−− and filled with 40 μl/well culture medium only. Compounds are then added (see next section) to medium only plates. After 3 hours of culturing the T-cells, cells are filtered through a cell strainer (Miltenyi Biotech, #130-041-407), counted again and concentration is adjusted to 1.25 Mio/ml.
Cells are then seeded 80 μl/well to the 40 μl/well including dispensed compounds according to plate layout. By adding cells, compounds are further diluted 1:3, and resulting in 100 k cells/120 μl/well. After 48 hours 40 μl of supernatant is collected carefully from the top while not disturbing the cells. Cells are assessed for proliferation 5 days later by measuring […] using CellTiterGlo (Promega).
Compounds were added in a 5 or 6 pt dose response with the Tecan D300e Digital Dispenser, all conditions 3 times more concentrated than the end-concentration, since cells are added afterwards (80 μl cells to 40 μl prepared medium with treatment). The DR was starting at 20 μM or 10 μM final top concentration and a dilution factor of 3.333. The positive control was the reference compound A1 that was added in a dose response as well, additionally to 3 wells of only 20 μM representing the positive stimulator control. All wells were normalized with DMSO to a final concentration of 0.6% (0.2% end-concentration).
After 5 days, for detection of ATP which is directly proportional to the number of cells present per well, the CellTiter-Glo® 2.0 Reagent is used. After visual control for toxicity or precipitations of the tested compounds, the plates are equilibrated to room temperature for 45 minutes. CellTiter-Glo® 2.0 Reagent is equilibrated to room temperature as well. After equilibration, an equal amount of CellTiter-Glo reagent is added to the cells (80 μl/well) with an electronic multichannel pipette. Plates are placed on a rocking platform for 15 minutes at room temperature. After incubation, the bottom of the plates is sealed with backing tape. Luminescence is measured with PHERAstar FSX (interval time 0.5 sec, gain 3000, focal height 15 mm) and exported as CSV file for analysis in Genedata screener.
CD3 and PBS plates were analysed separately in Genedata Screener using Roche Normalization PCT_POS_CTRL with DMSO set as Neutral Control and 20 μM of the reference compound A1 set as Stimulator Control/100%.
For CD3 conditions EC50 and Emax of the fitted sigmoidal curve were reported. If no curve could be fitted, the EC50 was reported as blank field and the Emax was based on individual data points. […] Compounds which activate unstimulated cells (see IL2 measurements) or compounds which negatively affected viability were flagged.

[1] = biological target: T1, DGKα (hDGKalpha(1-735)-N-His) (Homo sapiens, UniProt P23743); test: In vitro DGK inhibition assay, DGKalpha ADP Glo (in house); assay type: biochemical; settings: 4 nM DGKα, 25 μM ATP, 125 uM DLG in liposomes, 1 hour reaction
T1 construct: hDGKalpha(1-735)-N-His; His (N); made in house; host or cells: Sf21 insect cells (baculovirus)
Experimental: (§1) DGKα and ζ kinases use ATP to phosphorylate the substrate 1,2-dilauroyl-sn-glycerol (DLG, incorporated in the liposomes). ATP is converted to ADP as a result of this enzymatic reaction. After the kinase reaction, an ATP-depletion reagent is added to terminate the kinase reaction and deplete any remaining ATP, leaving only ADP. Second, a detection reagent is added to simultaneously convert ADP to ATP and allow the newly synthesized ATP to be converted to light using a coupled luciferase/luciferin reaction.
(§2) Full length DGKα and ζ were expressed in Sf21 insect cells by infecting the cells with the baculovirus stock at MOI of 2. Purification of both enzymes was performed as previously described by Takahashi et al., PeerJ, 2018 (Takahashi, D.; Sakane, F. Expression and purification of human diacylglycerol 5 kinase alpha from baculovirus-infected insect cells for structural studies. PeerJ2018, 6, No. e5449).
(§3) A concentrated liposome solution was prepared in assay buffer without DTT and BSA: 2 mM of DLG in 21 mM of total liposome (2 mM DLG/8 mM PS/11 mM PC). The reaction mixtures contain the assay buffer with a final DLG concentration of 125 uM ATP concentrations of 25 μM (for DGKA assay) or 50 μM (for DGKZ assay). The reactions were started by addition of DGK α and ζ kinases at 4 nM and 2 nM final concentrations, respectively. After 1 hour reaction, the amount of ADP formed was detected with the ADP-Glo kinase assay (Promega) according to the manufacturer instructions. Compounds were added in 11-points dose response, starting at […], 1:3 dilutions, with a final DMSO concentration of 2%. The multidrop combi was used as a liquid handler and luminescence was read with 0.5 s by the envision reader (PE).

[2] = biological target: T2, DGKζ (hDGKzeta(1-928)-N-His) (Homo sapiens, UniProt Q13574); test: In vitro DGK inhibition assay, DGKzeta ADP Glo (in house); assay type: biochemical; settings: 2 nM DGKζ, 50 μM ATP, 125 uM DLG in liposomes, 1 hour reaction
T2 construct: hDGKzeta(1-928)-N-His; His (N); made in house; host or cells: Sf21 insect cells (baculovirus)
Experimental: as §1, §2, §3

T1 sequence (P23743 whole entry): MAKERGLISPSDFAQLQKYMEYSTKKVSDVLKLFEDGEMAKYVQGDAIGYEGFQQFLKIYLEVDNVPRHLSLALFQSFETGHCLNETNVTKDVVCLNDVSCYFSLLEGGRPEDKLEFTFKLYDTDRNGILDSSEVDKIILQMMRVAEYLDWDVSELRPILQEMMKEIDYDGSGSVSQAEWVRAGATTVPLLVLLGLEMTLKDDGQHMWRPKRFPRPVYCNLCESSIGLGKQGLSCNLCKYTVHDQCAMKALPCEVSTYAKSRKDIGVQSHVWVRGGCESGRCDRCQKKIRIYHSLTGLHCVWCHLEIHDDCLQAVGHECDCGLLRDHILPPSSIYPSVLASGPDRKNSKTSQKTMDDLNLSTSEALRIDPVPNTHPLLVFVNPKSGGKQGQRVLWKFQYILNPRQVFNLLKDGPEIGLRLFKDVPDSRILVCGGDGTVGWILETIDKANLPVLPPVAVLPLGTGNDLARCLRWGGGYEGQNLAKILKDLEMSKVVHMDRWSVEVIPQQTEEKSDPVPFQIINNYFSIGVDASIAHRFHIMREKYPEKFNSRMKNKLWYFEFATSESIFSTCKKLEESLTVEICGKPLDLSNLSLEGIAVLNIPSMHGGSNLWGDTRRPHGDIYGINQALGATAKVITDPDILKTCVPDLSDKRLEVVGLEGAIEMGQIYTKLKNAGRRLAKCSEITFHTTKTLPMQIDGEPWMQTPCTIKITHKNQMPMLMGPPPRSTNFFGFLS
T2 sequence (Q13574 whole entry): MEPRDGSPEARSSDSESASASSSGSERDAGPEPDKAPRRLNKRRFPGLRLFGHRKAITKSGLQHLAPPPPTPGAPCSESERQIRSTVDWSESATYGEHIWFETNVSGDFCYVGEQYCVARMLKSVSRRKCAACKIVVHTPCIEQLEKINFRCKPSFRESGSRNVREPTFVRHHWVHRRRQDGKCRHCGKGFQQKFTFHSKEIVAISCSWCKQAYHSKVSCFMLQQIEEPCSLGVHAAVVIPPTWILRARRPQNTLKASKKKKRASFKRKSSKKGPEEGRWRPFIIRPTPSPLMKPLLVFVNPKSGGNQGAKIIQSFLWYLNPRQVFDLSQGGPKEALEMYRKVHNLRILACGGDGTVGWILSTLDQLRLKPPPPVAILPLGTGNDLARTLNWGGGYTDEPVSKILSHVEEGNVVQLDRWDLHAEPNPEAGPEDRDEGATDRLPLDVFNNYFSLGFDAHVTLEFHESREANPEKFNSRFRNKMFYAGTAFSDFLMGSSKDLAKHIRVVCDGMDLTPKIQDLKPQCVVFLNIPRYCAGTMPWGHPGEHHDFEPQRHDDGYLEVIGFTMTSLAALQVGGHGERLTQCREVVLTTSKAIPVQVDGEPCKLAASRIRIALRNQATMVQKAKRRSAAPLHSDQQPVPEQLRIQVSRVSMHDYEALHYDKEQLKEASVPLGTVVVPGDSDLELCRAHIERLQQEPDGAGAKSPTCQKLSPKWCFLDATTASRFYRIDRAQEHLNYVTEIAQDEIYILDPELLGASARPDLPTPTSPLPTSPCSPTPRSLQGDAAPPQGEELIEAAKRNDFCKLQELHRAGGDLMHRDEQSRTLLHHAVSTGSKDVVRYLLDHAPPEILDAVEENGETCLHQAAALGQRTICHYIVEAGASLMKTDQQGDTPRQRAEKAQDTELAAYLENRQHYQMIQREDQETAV

| SMILES | pIC50 [1] | pIC50 [2] | Emax proliferation (% activation) (primary human T-cells) | pEC50 (primary human T-cells) |
| --- | --- | --- | --- | --- |
| COC(F)(c1nnc(-c2ccc3c(c2)N(Cc2ccc(-c4ncn(C5CC5)n4)cc2)C(=O)[C@@H](N)CS3(=O)=O)o1)C(F)(F)F (stereo partly drawn) [Example 66, (3R)-3-amino-5-[[4-(1-cyclopropyl-1,2,4-triazol-3-yl)phenyl]methyl]-1,1-dioxo-7-[5-(1,2,2,2-tetrafluoro-1-methoxy-ethyl)-1,3,4-oxadiazol-2-yl]-2,3-dihydro-1λ^6,5-benzothiazepin-4-one] | 4.83 | 5.18 | 112 | 5.89 |
| CC(C)(C#N)c1nnc(-c2ccc3c(c2)N(Cc2ccc(-c4ccc(OCC(F)(F)F)cn4)cc2)C(=O)[C@@H](N)CS3(=O)=O)o1 [Example 135, 2-[5-[(3R)-3-amino-1,1,4-trioxo-5-[[4-[5-(2,2,2-trifluoroethoxy)-2-pyridyl]phenyl]methyl]-2,3-dihydro-1λ^6,5-benzothiazepin-7-yl]-1,3,4-oxadiazol-2-yl]-2-methyl-propanenitrile] | 5.76 | 6.10 | 149 | 6.59 |
| CC(C)(C#N)c1nnc(-c2ccc3c(c2)N(Cc2ccc(-c4ccc(OC(F)(F)F)nc4)cc2)C(=O)[C@@H](N)CS3(=O)=O)o1 [Example 137, 2-[5-[(3R)-3-amino-1,1,4-trioxo-5-[[4-[6-(trifluoromethoxy)-3-pyridyl]phenyl]methyl]-2,3-dihydro-1λ^6,5-benzothiazepin-7-yl]-1,3,4-oxadiazol-2-yl]-2-methyl-propanenitrile] | 4.95 | 6.18 | 124 | 6.39 |
| Cc1cc(-c2ccc(CN3C(=O)[C@@H](N)CS(=O)(=O)c4ccc(-c5nnc(C(C)(C)C#N)o5)cc43)cc2)ncc1OC(F)(F)F [Example 144, 2-[5-[(3R)-3-amino-5-[[4-[4-methyl-5-(trifluoromethoxy)-2-pyridyl]phenyl]methyl]-1,1,4-trioxo-2,3-dihydro-1λ^6,5-benzothiazepin-7-yl]-1,3,4-oxadiazol-2-yl]-2-methyl-propanenitrile] | 4.81 | 6.07 | 87 | 6.54 |
| N#CC1(c2nnc(-c3ccc4c(c3)N(Cc3ccc(-c5ccc(OC(F)(F)F)cn5)cc3)C(=O)[C@@H](N)CS4(=O)=O)o2)CCOCC1 [Example 173, 4-[5-[(3R)-3-amino-1,1,4-trioxo-5-[[4-[5-(trifluoromethoxy)-2-pyridyl]phenyl]methyl]-2,3-dihydro-1λ^6,5-benzothiazepin-7-yl]-1,3,4-oxadiazol-2-yl]tetrahydropyran-4-carbonitrile] | 5.69 | 6.38 | 101 | 6.63 |
| CCC(C#N)(CC)c1nnc(-c2ccc3c(c2)N(Cc2ccc(-c4ccc(OC(F)(F)F)cn4)cc2)C(=O)[C@@H](N)CS3(=O)=O)o1 [Example 176, 2-[5-[(3R)-3-amino-1,1,4-trioxo-5-[[4-[5-(trifluoromethoxy)-2-pyridyl]phenyl]methyl]-2,3-dihydro-1λ^6,5-benzothiazepin-7-yl]-1,3,4-oxadiazol-2-yl]-2-ethyl-butanenitrile] | 5.82 | 5.81 | 140 | 7.07 |
| N[C@H]1CS(=O)(=O)c2ccc(-c3nnc(C4(N)CCC(F)(F)CC4)o3)cc2N(Cc2ccc(-c3ccc(OC(F)(F)F)cn3)cc2)C1=O [Example 178, (3R)-3-amino-7-[5-(1-amino-4,4-difluoro-cyclohexyl)-1,3,4-oxadiazol-2-yl]-1,1-dioxo-5-[[4-[5-(trifluoromethoxy)-2-pyridyl]phenyl]methyl]-2,3-dihydro-1λ^6,5-benzothiazepin-4-one] | 5.15 | 5.77 | 96 | 6.87 |

More lines, in order of rising pIC50 [1], values ahead:

| pIC50 [1] | pIC50 [2] | SMILES | Emax proliferation (% activation) (primary human T-cells) | pEC50 (primary human T-cells) |
| --- | --- | --- | --- | --- |
| 4.74 | 6.02 | CC(C)(C#N)c1nnc(-c2ccc3c(c2)N(Cc2ccc(-n4cc(C(F)(F)F)nn4)cc2)C(=O)[C@@H](N)CS3(=O)=O)o1 [Example 145, 2-[5-[(3R)-3-amino-1,1,4-trioxo-5-[[4-[4-(trifluoromethyl)triazo1-1-yl]phenyl]methyl]-2,3-dihydro-1λ^6,5-benzothiazepin-7-yl]-1,3,4-oxadiazol-2-yl]-2-methyl-propanenitrile] | 86 | 5.37 |
| 5.03 | 5.94 | CC(C)(C#N)Cc1nnc(-c2ccc3c(c2)N(Cc2ccc(-c4ccc(OC(F)(F)F)cn4)cc2)C(=O)[C@@H](N)CS3(=O)=O)o1 [Example 174, 3-[5-[(3R)-3-amino-1,1,4-trioxo-5-[[4-[5-(trifluoromethoxy)-2-pyridyl]phenyl]methyl]-2,3-dihydro-1λ^6,5-benzothiazepin-7-yl]-1,3,4-oxadiazol-2-yl]-2,2-dimethyl-propanenitrile] | 124 | 6.26 |
| 6.13 | 5.98 | Cn1nc(OC(F)(F)F)cc1-c1ccc(CN2C(=O)[C@@H](N)CS(=O)(=O)c3ccc(-c4nnc(C(C)(C)C#N)o4)cc32)cc1 [Example 148, 2-[5-[(3R)-3-amino-5-[[4-[2-methyl-5-(trifluoromethoxy)pyrazol-3-yl]phenyl]methyl]-1,1,4-trioxo-2,3-dihydro-1λ^6,5-benzothiazepin-7-yl]-1,3,4-oxadiazol-2-yl]-2-methyl-propanenitrile] | 186 | 6.74 |
| 6.18 | 6.33 | CC(C)(C#N)c1nnc(-c2ccc3c(c2)N(Cc2ccc(-n4cc(OC(F)(F)F)cn4)cc2)C(=O)[C@@H](N)CS3(=O)=O)o1 [Example 138, 2-[5-[(3R)-3-amino-1,1,4-trioxo-5-[[4-[4-(trifluoromethoxy)pyrazol-1-yl]phenyl]methyl]-2,3-dihydro-1λ^6,5-benzothiazepin-7-yl]-1,3,4-oxadiazol-2-yl]-2-methyl-propanenitrile] | 158 | 7.08 |
